{
  "source": "patent US20140357512A1",
  "about": "“HISTONE DEACETYLASE (HDAC) BIOMARKERS IN MULTIPLE MYELOMA” (priority 2013, published 2014)",
  "system": "human myeloma cell line MM.1S",
  "experiment": "SILAC acetylated-lysine peptide profiling, HDAC inhibitor vs DMSO (light/heavy ratio)",
  "assay_type": "cell-based",
  "from_the_text": "An embodiment of the invention comprises utilizing the SILAC method in order to quantitate changes in protein expression between two or more populations of cells. The SILAC method is a technique based on mass spectrometry that detects differences in protein abundance among samples using non-radioactive isotopic labeling. The SILAC method is known in the art, and described in detail in Ong et al., “Stable Isotope Labeling by Amino Acids in Cell Culture, SILAC, as a Simple and Accurate Approach to Expression Proteomics”, Molecular & Cellular Proteomics, vol. 1, pp. 376-386 (2002), which is incorporated herein by reference in its entirety.\nBriefly, the SILAC method involves growing two populations of cells in cell culture. The first population of cells is grown in growth media containing normal amino acids (“normal media”). The second population of cells is grown in media lacking a standard essential amino acid (such as lysine), but is then supplemented with a non-radioactive, isotopically labeled form of that essential amino acid (such as lysine labeled with ^13C atoms, rather than normal ^12C atoms), which is called “heavy media”. When the two populations of cells are each growing in the medium, they incorporate the amino acids into all of their proteins. The growth of cells maintained in the heavy media is no different from that in normal media. All peptides containing the heavy amino acids are heavier than their normal counterparts. The cells from each of the two populations of cells are lysed. The lysates from each of the two cell populations are then combined. The combined cell lysates are then analyzed by mass spectrometry. Pairs of chemically identical peptides of different stable isotope composition can be differentiated in a mass spectrometer due to their difference in mass. The ratio of peak intensities in the mass spectrum for such peptide pairs reflects the abundance ratio for the two proteins.\nThis example describes SILAC studies that were performed to compare the effects of three different HDAC inhibitors (Compound A, Compound B, and tubastatin A) to a control on a human multiple myeloma cell line. The HDAC inhibitors were also compared amongst themselves to determine differences in their effects.\nA human myeloma cell line MM.1S was grown using either ^12C (light) or ^13C (heavy) lysine containing culture medium. The “heavy” cells were treated with DMSO as the control, and the “light” cells were treated with a single HDAC inhibitor at 37° C. for 6 hours. The heavy and light cells were lysed, and the lysates were mixed in 1:1 ratio and digested with the protease trypsin. The acetylated lysine containing peptides (due to the action of the HDAC inhibitor) in the digested peptide pool were captured by a non-specific anti-acetylated lysine antibody cocktail (the antibodies identify both light and heavy acetylated peptides), and subjected to mass spectrometry analysis in order to identify thousands of individual peptides.\nThousands of peptides were identified in pairs (^12C and ^13C) due to their known mass differences. The amino acid sequence and quantitative ratio (Light/Heavy) of a given peptide in two differentially treated cell lysates were then determined and annotated with their possible protein (gene) sources.\nAs stated above, three HDAC inhibitors (Compound A, Compound B, and Tubastatin A) were used. Thus, the SILAC method was performed three times, with a different HDAC inhibitor compared to a control each time. Accordingly, there are three pairs of quantitative data in the table below, i.e., Compound A:DMSO, Compound B:DMSO, and Tubastatin A:DMSO. A cut-off of 1.30 fold of change (increase or decrease) was then used to determine “changed” or “+” in the table, and any peptides with a fold of change less than 1.3 fold were determined to be “unchanged” or “0” in the table. Those peptides that were not identified were marked as “NA” in the table. […]",
  "data": [
    {"smiles": "O=C(CCCCCCNC(=O)c1cnc(N(c2ccccc2)c2ccccc2)nc1)NO", "note": "[Compound A, 2-(diphenylamino)-N-(7-(hydroxyamino)-7-oxoheptyl)pyrimidine-5-carboxamide]", "values": [
      {"measurement": "light to heavy ratio (L/H ratio) of acetylated peptide EIAENALGK(ac)HK (SEQ ID NO: 617)", "setting": "Isoform 1 of Heterogeneous nuclear ribonucleoprotein H3 [76], gene HNRNPH3, inhibitor:DMSO", "result": 0.47, "unit": "log 2"},
      {"measurement": "light to heavy ratio (L/H ratio) of acetylated peptide DVSYQGGK(ac)SIK (SEQ ID NO: 571)", "setting": "Isoform 1 of Histone-lysine N-methyltransferase MLL3 [758], gene MLL3, inhibitor:DMSO", "result": 0.42, "unit": "log 2"},
      {"measurement": "light to heavy ratio (L/H ratio) of acetylated peptide TLVLSDK(ac)HSPQK (SEQ ID NO: 523)", "setting": "Isoform 1 of Histone-lysine N-methyltransferase MLL3 [2809], gene MLL3, inhibitor:DMSO", "result": "−0.46", "unit": "log 2"},
      {"measurement": "light to heavy ratio (L/H ratio) of acetylated peptide VK(ac)NELFK (SEQ ID NO: 565)", "setting": "Isoform 1 of Hydroxyacyl-coenzyme A dehydrogenase mitochondrial [127], gene HADH, inhibitor:DMSO", "result": 0.41, "unit": "log 2"},
      {"measurement": "light to heavy ratio (L/H ratio) of acetylated peptide LVAENK(ac)FGK (SEQ ID NO: 296)", "setting": "Isoform 1 of Hydroxyacyl-coenzyme A dehydrogenase mitochondrial [301], HADH, drug:DMSO", "result": 0.74, "unit": "log 2"},
      {"measurement": "light to heavy ratio (L/H ratio) of acetylated peptide K(ac)[…] (SEQ ID NO: 316)", "setting": "Isoform 1 of L-lactate dehydrogenase A chain [318], LDHA, drug:DMSO", "result": 1.00, "unit": "log 2"},
      {"measurement": "light to heavy ratio (L/H ratio) of acetylated peptide INK(ac)ALDK (SEQ ID NO: 344)", "setting": "Isoform 1 of Myosin-9 [435], MYH9, drug:DMSO", "result": 0.00, "unit": "log 2"},
      {"measurement": "light to heavy ratio (L/H ratio), log 2 scale, acetylated peptide INKALDK(ac)TK (SEQ ID NO: 802)", "setting": "Isoform 1 of Myosin-9 [439], gene MYH9, drug:DMSO", "result": 1.00},
      {"measurement": "light to heavy ratio (L/H ratio) of acetylated peptide FYK(ac)[…] (SEQ ID NO: 596)", "setting": "Isoform 1 of N-alpha-acetyltransferase 50 NatE catalytic subunit [37], gene NAA50, inhibitor:DMSO", "result": 0.45, "unit": "log 2"},
      {"measurement": "light to heavy ratio (L/H ratio), log 2 scale, acetylated peptide VYFK(ac)DTHPK (SEQ ID NO: 758)", "setting": "Isoform 1 of NADH-cytochrome b5 reductase 3 [115], gene CYB5R3, drug:DMSO", "result": 0.90},
      {"measurement": "light to heavy ratio (L/H ratio), log 2 scale, acetylated peptide […](ac)SK (SEQ ID NO: 767)", "setting": "Isoform 1 of Peripherin [288], gene PRPH, drug:DMSO", "result": 0.94},
      {"measurement": "light to heavy ratio (L/H ratio) of acetylated peptide K(ac)EYVFADSK (SEQ ID NO: 616)", "setting": "Isoform 1 of Phosphatidylinositol-345-trisphosphate 5-phosphatase 1 [371], gene INPP5D, LOC646743, inhibitor:DMSO", "result": 0.47, "unit": "log 2"},
      {"measurement": "light to heavy ratio (L/H ratio) of acetylated peptide VK(ac)ILFNK (SEQ ID NO: 561)", "setting": "Isoform 1 of Polypyrimidine tract-binding protein 1 [368], gene PTBP1, inhibitor:DMSO", "result": 0.40, "unit": "log 2"},
      {"measurement": "light to heavy ratio (L/H ratio) of acetylated peptide TACAINK(ac)VLMGR (SEQ ID NO: 584)", "setting": "Isoform 1 of Protein FAM98A [297], gene FAM98A, inhibitor:DMSO", "result": 0.43, "unit": "log 2"},
      {"measurement": "light to heavy ratio (L/H ratio) of acetylated peptide LMK(ac)YLLEQLK (SEQ ID NO: 585)", "setting": "Isoform 1 of Protein MB21D1 [414], gene MB21D1, inhibitor:DMSO", "result": 0.43, "unit": "log 2"},
      {"measurement": "light to heavy ratio (L/H ratio) of acetylated peptide VLSK(ac)[…] (SEQ ID NO: 294)", "setting": "Isoform 1 of Protein SET [154], SET, drug:DMSO", "result": 0.69, "unit": "log 2"},
      {"measurement": "light to heavy ratio (L/H ratio) of acetylated peptide […](ac)ALK (SEQ ID NO: 349)", "setting": "Isoform 1 of RNA-binding protein with serine-rich domain 1 [218], RNPS1, drug:DMSO", "result": 0.00, "unit": "log 2"},
      {"measurement": "light to heavy ratio (L/H ratio), log 2 scale, acetylated peptide […](ac)TDQAQDVK (SEQ ID NO: 765)", "setting": "Isoform 1 of Signal recognition particle 9 kDa protein [52], gene SRP9, drug:DMSO", "result": 0.93},
      {"measurement": "light to heavy ratio (L/H ratio), log 2 scale, acetylated peptide AMMEK(ac)LVK(ac)SISQLK (SEQ ID NO: 814)", "setting": "Isoform 1 of Signal transducer and activator of transcription 2 [158:161], gene STAT2, drug:DMSO", "result": 1.00},
      {"measurement": "light to heavy ratio (L/H ratio) of acetylated peptide DMCLEK(ac)DTLGLFLR (SEQ ID NO: 530)", "setting": "Isoform 1 of U5 small nuclear ribonucleoprotein 200 kDa helicase [745], gene SNRNP200, inhibitor:DMSO", "result": "−0.41", "unit": "log 2"},
      {"measurement": "light to heavy ratio (L/H ratio) of acetylated peptide LEMSYSK(ac)FK (SEQ ID NO: 304)", "setting": "Isoform 1 of UDP-N-acetylglucosamine--dolichyl-phosphate N-acetylglucosaminephosphotransferase [320], DPAGT1, drug:DMSO", "result": 1.00, "unit": "log 2"},
      {"measurement": "light to heavy ratio (L/H ratio) of acetylated peptide PK(ac)PLLFK (SEQ ID NO: 544)", "setting": "Isoform 1 of UDP-glucose:glycoprotein glucosyltransferase 1 [176], gene UGGT1, inhibitor:DMSO", "result": 0.39, "unit": "log 2"},
      {"measurement": "light to heavy ratio (L/H ratio) of acetylated peptide TMSCSDK(ac)ILR (SEQ ID NO: 323)", "setting": "Isoform 2 of Double-stranded RNA-specific adenosine deaminase [1013], ADAR, drug:DMSO", "result": 0.00, "unit": "log 2"},
      {"measurement": "light to heavy ratio (L/H ratio) of acetylated peptide […](ac)[…] (SEQ ID NO: 336)", "setting": "Isoform 2 of Fibronectin type-III domain-containing protein 3A [507], FNDC3A, drug:DMSO", "result": 0.00, "unit": "log 2"},
      {"measurement": "light to heavy ratio (L/H ratio), log 2 scale, acetylated peptide FYEQFSK(ac)NIK (SEQ ID NO: 799)", "setting": "Isoform 2 of Heat shock protein HSP 90-alpha [565], gene HSP90AA1, drug:DMSO", "result": 1.00},
      {"measurement": "light to heavy ratio (L/H ratio) of acetylated peptide SK(ac)GK(ac)NSDEEAPK (SEQ ID NO: 615)", "setting": "Isoform 2 of Inhibitor of growth protein 4 [145:147], gene ING4, inhibitor:DMSO", "result": 0.47, "unit": "log 2"},
      {"measurement": "light to heavy ratio (L/H ratio) of acetylated peptide LSFISVGNK(ac)FK (SEQ ID NO: 521)", "setting": "Isoform 2 of Myosin-VI [646], gene MYO6, inhibitor:DMSO", "result": "−0.49", "unit": "log 2"},
      {"measurement": "light to heavy ratio (L/H ratio) of acetylated peptide AEK(ac)[…] (SEQ ID NO: 503)", "setting": "Isoform 2 of Neutral alpha-glucosidase AB [242], gene GANAB, inhibitor:DMSO", "result": "−0.71", "unit": "log 2"},
      {"measurement": "light to heavy ratio (L/H ratio) of acetylated peptide GAK(ac)PVVVLQK (SEQ ID NO: 611)", "setting": "Isoform 2 of Nipped-B-like protein [1000], gene NIPBL, inhibitor:DMSO", "result": 0.47, "unit": "log 2"},
      {"measurement": "light to heavy ratio (L/H ratio) of acetylated peptide LIAGNK(ac)[…] (SEQ ID NO: 512)", "setting": "Isoform 2 of Nuclear factor related to kappa-B-binding protein [1262], gene NFRKB, inhibitor:DMSO", "result": "−0.58", "unit": "log 2"},
      {"measurement": "light to heavy ratio (L/H ratio) of acetylated peptide […](ac)K (SEQ ID NO: 626)", "setting": "Isoform 2 of Septin-7 [207], gene, inhibitor:DMSO", "result": 0.49, "unit": "log 2"},
      {"measurement": "light to heavy ratio (L/H ratio) of acetylated peptide YQQFK(ac)DFQR (SEQ ID NO: 258)", "setting": "Isoform 2 of Spliceosome RNA helicase DDX39B [349], SNORD84, DDX39B, drug:DMSO", "result": 0.39, "unit": "log 2"},
      {"measurement": "light to heavy ratio (L/H ratio) of acetylated peptide GLCEK(ac)PLASAAAK (SEQ ID NO: 536)", "setting": "Isoform 2 of Transportin-3 [513], gene TNPO3, inhibitor:DMSO", "result": "−0.39", "unit": "log 2"},
      {"measurement": "light to heavy ratio (L/H ratio), log 2 scale, acetylated peptide LEPLK(ac)PLK (SEQ ID NO: 772)", "setting": "Isoform 3 of Proline-rich protein 12 [1223], gene PRR12, drug:DMSO", "result": 1.00},
      {"measurement": "light to heavy ratio (L/H ratio), log 2 scale, acetylated peptide DQTK(ac)SIVEK (SEQ ID NO: 810)", "setting": "Isoform 3 of Reticulon-3 [217], gene RTN3, drug:DMSO", "result": 1.00},
      {"measurement": "light to heavy ratio (L/H ratio) of acetylated peptide LAAFGQLHK(ac)[…] (SEQ ID NO: 570)", "setting": "Isoform 5 of Interleukin enhancer-binding factor 3 [332], gene ILF3, inhibitor:DMSO", "result": 0.41, "unit": "log 2"}
    ]}
  ]
}
